Measured values published in PMC6058925 (JACC: Basic to Translational Science, 2017).

System: adult male CD1 mice, ischemia-reperfusion
Details: mouse, in vivo

Substance: AAT: plasma-derived alpha-1 antitrypsin (Aralast NP, Baxter)
- Infarct size when given with the LRP1 blocking antibody: significant increase in infarct size
